The values below come from paper PMC12040169 (PLOS Biology, 2025).

The data set in a line: in vitro. The following applies: human, hela cells, % viability.
Turning to `CCCn1cnc2cc(NC(=O)c3ccc(=O)n(CC(=O)N(C)c4ccccc4)c3)ccc21` [CBK286026], the viability (as a rule, a read-out of living cells in per cent, often relative to untreated cells) at 28.5 h, 10 µM stood at 94.3%.

As for `Cc1ccccc1CCNC(=O)c1cccn(CC(=O)N(C)C2CCCCC2)c1=O` [CBK286028], the viability at 28.5 h, 10 µM stood at 122%.

Turning to `Cc1cc(C)nc(N2CCC(CC(=O)NCC(C)N3CCCCCC3)CC2)n1` (stereo not shown) [CBK286029], the viability at 28.5 h, 10 µM amounted to 94.9%.

`O=C(Cc1ccccc1)N1CCC(CC(=O)N2CCC3(CCCCC3)C2)CC1` [CBK286031]: the viability at 28.5 h, 10 µM amounted to 93.8%.

On to `Cc1ccc2c(c1)cc(C(=O)N1CCOC(C(=O)N3CCCCCC3)C1)n2C` (stereo not shown) [CBK286032], for which the viability at 28.5 h, 10 µM amounted to 109%.

For the molecule `CC(C)(C(=O)N1CCC(C(=O)NCCc2c[nH]c3ccccc23)C1)c1ccc(F)cc1` (stereo not shown) [CBK286034], the viability at 28.5 h, 10 µM is 102%.

In the case of `CN(C)c1ncc(-c2ccc(Cl)cc2)c(C2CCCN2C(=O)CN2CCCC2)n1` (stereo not shown) [CBK286037], the viability at 28.5 h, 10 µM turned out to be 99.2%.

On to `CC(C)c1ccc(C(C)NC(=O)c2ccc(=O)n(CC(=O)NC3CCCC3)c2)cc1` (stereo not shown) [CBK286038], for which the viability at 28.5 h, 10 µM worked out at 97.4%.

For `O=C(Cn1cccc(C(=O)NCc2ccccc2)c1=O)Nc1cc(F)ccc1N1CCCC1` [CBK286041], the viability at 28.5 h, 10 µM was found to be 101%.

Regarding `CCn1c(C)nc2cc(NC(=O)Cn3cccc(C(=O)NC4CCCCC4)c3=O)ccc21` [CBK286042], the viability at 28.5 h, 10 µM stood at 92.9%.

For `CC(C)c1ccc(C(C)NC(=O)Cn2cccc(C(=O)Nc3ccc(F)cc3)c2=O)cc1` (stereo not shown) [CBK286043], the viability at 28.5 h, 10 µM worked out at 89.3%.

As for `CC(C)c1ccc(C(C)NC(=O)Cn2cccc(C(=O)NC3CCCCC3)c2=O)cc1` (stereo not shown) [CBK286044], the viability at 28.5 h, 10 µM amounted to 119%.

As for `CN1CCN(C(=O)Cn2cccc(C(=O)Nc3ccc(F)cc3)c2=O)C(c2ccccc2)C1` (stereo not shown) [CBK286045], the viability at 28.5 h, 10 µM is 96.6%.

As to `O=C(CC1CCN(C(=O)CC2CCCCC2)CC1)Nc1ccccc1CN1CCCC1` [CBK286046], the viability at 28.5 h, 10 µM was 100%.

Consider `CC(CN1CCOCC1)C(=O)N1CC(C(=O)N2CCN(c3ccccc3)CC2)C1` (stereo not shown) [CBK286047], for which the viability at 28.5 h, 10 µM came out at 90.6%.

Take `CN1CCN(C(=O)Cn2cc(C(=O)Nc3ccc(F)cc3)ccc2=O)C(c2ccccc2)C1` (stereo not shown) [CBK286050]: the viability at 28.5 h, 10 µM was 81.9%.

Take `Cc1ccc(C2CCCN2C(=O)Cn2cc(C(=O)NCc3ccccc3)ccc2=O)cc1C` (stereo not shown) [CBK286051]: the viability at 28.5 h, 10 µM is 88.1%.

Regarding `Cc1ccc(C)c(C2CCCN2C(=O)Cn2cc(C(=O)NCc3ccccc3)ccc2=O)c1` (stereo not shown) [CBK286052], the viability at 28.5 h, 10 µM came to 112%.

Turning to `O=C(Cn1cccc(C(=O)Nc2ccc(F)cc2)c1=O)Nc1nc2c(s1)CCCCC2` [CBK286055], the viability at 28.5 h, 10 µM was found to be 84.7%.

`O=C(Cn1cccc(C(=O)NC2CCCCC2)c1=O)Nc1nc2c(s1)CCCCC2` [CBK286056]: the viability at 28.5 h, 10 µM turned out to be 90.1%.

With `O=C(Cn1cccc(C(=O)NCc2ccccc2)c1=O)NC1(c2ccccc2)CCCC1` [CBK286058], the viability at 28.5 h, 10 µM was found to be 89.1%.

On to `CCCn1cnc2cc(NC(=O)Cn3cccc(C(=O)Nc4ccc(F)cc4)c3=O)ccc21` [CBK286060], for which the viability at 28.5 h, 10 µM stood at 84.7%.

As to `CCC(c1ccc(F)cc1)N(C)C(=O)Cn1cccc(C(=O)Nc2ccc(F)cc2)c1=O` (stereo not shown) [CBK286061], the viability at 28.5 h, 10 µM was 88.7%.

In the case of `Cc1ccc(C)c(C2CCCN2C(=O)Cn2cccc(C(=O)NCc3ccccc3)c2=O)c1` (stereo not shown) [CBK286062], the viability at 28.5 h, 10 µM was 78.5%.

For the molecule `CC1CCc2nc(NC(=O)Cn3cccc(C(=O)Nc4ccc(F)cc4)c3=O)sc2C1` (stereo not shown) [CBK286063], the viability at 28.5 h, 10 µM was 95.5%.

For `CC(CN(C)C(=O)Cn1cccc(C(=O)Nc2ccc(F)cc2)c1=O)c1ccccc1` (stereo not shown) [CBK286065], the viability at 28.5 h, 10 µM was found to be 92.5%.

As for `CC(CN(C)C(=O)Cn1cccc(C(=O)NC2CCCCC2)c1=O)c1ccccc1` (stereo not shown) [CBK286066], the viability at 28.5 h, 10 µM came out at 92.5%.

As for `CC(C)(CNC(=O)Cn1cccc(C(=O)NC2CCCCC2)c1=O)c1ccccc1F` [CBK286068], the viability at 28.5 h, 10 µM worked out at 89.6%.
